In patent US20040076668A1, “Controlled-release pharmaceutical formulations” (Pfizer Inc., priority 2002, published 2004):
Like-named read-outs stand apart in the source and are kept apart here.

What was measured:
[1] = Dissolution as a function of dissolution media pH; format: physicochemical; details: at the lower pH (simulated gastric fluid pH 1.2); sink conditions cannot be maintained
Procedure: In order to determine the amount of compound (I) dissolved in simulated gastric fluid at pH 1.2, the amount remaining in the formulations was assayed and subtracted from the amount initially present. This procedure was employed because, at the lower pH, the solubility of compound (I) is lower and sink conditions cannot be maintained during dissolution. [formula] [formula]

[2] = Human in vivo oral dosage escalation studies: nausea and emesis side-effects; details: human, in vivo, immediate-release formulations, human
Procedure: (§1) In Tables 13 and 14, standard deviation values are reported parenthetically. Furthermore, a “Yes” entry means greater than half of the subjects experienced the indicated side-effect, while a “No” entry indicates none, or less than half, of the subjects experienced the indicated side-effect.
(§2) The 3 mg dosages of compound (I) indicated in Tables 13 and 14 comprised the simultaneous administration of three 1 mg tablets of the SCT formulations of the present invention. Likewise, the 30 mg dosages of compound (I) comprised the simultaneous administration of three 10 mg tablets of the SCT formulations of the present invention.
(§3) The OPC immediate-release formulations comprising compound (I) were prepared extemporaneously by diluting powdered sodium citrate with water to a final concentration of 0.02 M and dissolving compound (I) therein with stirring. The prepared solution was then orally administered to the subject.
(§4) Analysis of such data will establish the relationship between the plasma pharmacokinetics and nausea and emesis side-effects in human subjects administered with dosages of compound (I). At Cmax values of less than 60 ng/mL, compound (I) was generally well tolerated. […] Dosages of compound (I) greater than 10 mg in the fasted state, and 30 mg in the fed state, could not be successfully administered due to the severity of the resulting nausea and emesis.
(§5) In some subjects given the 30 mg dosage in the fed state, the peak concentrations were in excess of 250 ng/mL, with the mean being 198 ng/mL. Predicated upon a Cmax threshold of 200 ng/mL for emesis, a much higher incidence of emesis would have been predicted to occur at this dosage.

human subjects = experiment: as above; details: for dosages that could not be successfully administered due to the severity of nausea and emesis: immediate-release, human
Procedure: as §1, §2, §3, §4, §5

[3] = concluded from the IR formulation data

C[C@@H](Oc1ccc(CNC(=O)c2cccnc2Oc2ccc3c(c2)OCO3)c(F)c1)C(=O)O [Compound (I), (R)-2-[4-({[2-(Benzo[1,3]dioxol-5-yloxy)-pyridine-3-carbonyl]-amino}-methyl)-3-fluoro-phenoxy]-propionic Acid]
solubility of compound (I) [1]: lower | Cmax ([2]; read-out: threshold for emesis (Cmax)): ~200 ng/mL | Cmax ([2]; read-out: threshold for nausea (Cmax)): ~60 ng/mL | Cmax/Tmax ratio that will maintain a low incidence for emesis (human subjects; [3]): less than 100 ng/ml/hr | Cmax/Tmax ratio that will maintain a low incidence of nausea (human subjects; [3]): less than 40 ng/ml/hr | dosages that could not be successfully administered due to the severity of nausea and emesis (human subjects; fasted state): greater than 10 mg | dosages that could not be successfully administered due to the severity of nausea and emesis (human subjects; fed state): > 30 mg
